Where a SMILES comes first, the peptide text is derived from it. [ ]: non-standard residue; d: D form. The star is where a group is joined. Myristoyl = CCCCCCCCCCCCCC(=O)*; pS = N[C@@H](COP(=O)(O)O)C(=O)O

For one experiment, the target named is T1, GSK-3β (Homo sapiens, UniProt P49841).
T1 construct: made in house; host or cells: HEK-293 (transient transfection, pCMV4 vector; DE-52 partial purification)
Kind of experiment: In vitro kinase assay with GSK-3β in the presence of peptide inhibitor. Format: biochemical. As to the method:
(§1) (0.5 μCi/assay) for 15 minutes.
The ability of each peptide to inhibit GSK-3β was then determined by in vitro kinase assays as described hereinabove.

For experiment [1], the system named is β-catenin. Kind of experiment: β-catenin levels in COS-7 cells, Western blot. Format: cell-based. Conditions: various concentrations, 5 hour, FIG. 6B. The method, then: In further studies, COS-7 cells were treated with L806-mts at various concentrations for 5 hour.
The subject of experiment [2] is heat shock factor-1 (HSF-1). Kind of experiment: Phosphorylation of HSF-1 in COS-7 cells, Western blot. Type of experiment: cell-based. The conditions noted are these: FIG. 6C. As to the method: L806-mts-treated COS-7 cells were also tested for phosphorylation of the GSK-3 substrate heat shock factor-1 (HSF-1).
Experiment [3] deals with β-catenin. Kind of experiment: Hippocampus β-catenin levels in mice after nasal administration. Type of experiment: in vivo, C57BL/6J mice. Conditions: 60 μg peptide/mouse/day, 3 days, vs non-treated. The method, then: C57BL/6J mice (12 week old; obtained from Animal Facilities at Tel Aviv University) were treated with L803-mts or L806-mts via a nasal administration (60 μg peptide/per mouse/per day) for 3 days. Non-treated animals served as control. Brains were removed and hippocampus was homogenized in ice-cold ‘buffer G’(20 mM Tris pH 7.5, 10 mM β-glycerophosphate, 10% glycerol, 1 mM EGTA, 1 mM EDTA, 50 mM NaF, 5 mM sodium pyrophosphate, 0.5 mM orthovanadate, 1 mM benzamidine, 5 μg/ml leupeptin, 25 μg/ml aprotinin, 5 μg/ml pepstatin, and 0.5% Triton X100). Equal amounts of proteins (50 μg) were subjected to gel electrophoresis, transferred to nitrocellulose membranes, and immunoblotted with anti-β-catenin antibody. Hippocampus β-catenin levels were determined by western blot analysis as described.

The test system of a further experiment is pIRS-1. In words: In vitro kinase assay of GSK-3β mutants, substrate pIRS-1. The conditions noted are these: WT set to 100%; mean of 2-3 experiments ± SEM. Type of experiment: biochemical. As to the method: (§2) HEK-293 cells were grown in Dulbecco's Modified Eagle's Medium (DMEM), supplemented with 10% fetal calf serum (FCS), 2 mM glutamine, 100 units/ml penicillin, and 100 μg/ml streptomycin. HEK-293 cells were transiently transfected with indicated constructs, using calcium phosphate method as described [Ilouz et al. (2006) supra]. Cells were lysed in ice-cold buffer G (20 mM Tris-HCl, pH 7.5, 10 mM β-glycerophosphate, 10% glycerol, 1 mM EGTA, 1 mM EDTA, 50 mM NaF, 5 mM sodium pyrophosphate, 0.5 mM orthovanadate, 1 mM benzamidine, 10 μg/ml leupeptin, 5 μg/ml aprotinin, 1 μg/ml pepstatin, and 0.5% Triton X100). Cell extracts were centrifuged for 30 minutes at 15,000×g. Supernatants were collected, and equal amounts of proteins were boiled with SDS sample buffer and subjected to gel electrophoresis (7.5-12% polyacrylamide gel), transferred to nitrocellulose membranes, and immunoblotted with indicated antibodies. For partial purification, cells were lysed in buffer H (20 mM Tris, pH 7.3, 1 mM EGTA, 1 mM EDTA, 1 mM orthovanadate, 25 μg/ml leupeptin, 25 μg/ml aprotinin, and 25 μg/ml pepstatin A, 500 nM microcystine LR, and 0.25% Triton X100). The lysates were centrifuged at 15,000×g. The resulting supernatants were passed through DE-52 (Whatman, Maidstone, England) mini-columns that were equilibrated with buffer H. GSK-3β proteins were eluted with the same buffer containing 0.02 M NaCl. Equal amounts of proteins were used for in vitro kinase assays. In all experiments, GSK-3 mutants were expressed at levels at least 5-fold higher than levels of the endogenous GSK-3β as determined by western blot analysis.
as §1
(§3) The GSK-3β mutants were partially purified by ion exchange chromatography, and their abilities to phosphorylate peptide substrates were tested in in vitro kinase assays. The substrates were: pIRS-1, p9CREB, and pGS-1, phosphorylated peptides derived from the insulin receptor substrate-1 (IRS-1), cAMP responsive element binding protein (CREB), and glycogen synthase, respectively.
(§4) The results are presented in Table 1, as the percentage of substrate phosphorylation (indicated peptides, pIRS-1, p9CREB and pGS-1) obtained with WTGSK-3β which was set to 100%, and are mean of 2-3 independent experiments each performed in duplicates±SEM.

The next experiment concerns p9CREB. Kind of experiment: In vitro kinase assay of GSK-3β mutants, substrate p9CREB. The conditions noted are these: WT set to 100%; mean of 2-3 experiments ± SEM. Type of experiment: biochemical. The method, then:
as §2, §1, §3, §4

The test system of the next experiment is pGS-1. Kind of experiment: In vitro kinase assay of GSK-3β mutants, substrate pGS-1. Format: biochemical. The conditions noted are these: WT set to 100%; mean of 2-3 experiments ± SEM. The method, then:
as §2, §1, §3, §4

Experiment [4] deals with CREB (Ser 129) and N′IRS-1 (Ser 332). In words: Phosphorylation of CREB and N'IRS-1 in HEK-293 cells expressing GSK-3β proteins. Type of experiment: cell-based. Conditions: forskolin or PMA treated, compared with WT-GSK-3β. As to the method:
The role of Phe 93 in substrate binding by employing a cellular system and protein substrates (i.e., not peptides) was further explored. To this end, the WT-GSK-3β and F93A mutant were expressed in HEK-293 cells together with GSK-3 substrates CREB or N′IRS-1 (the N-terminal region of IRS-1). Because GSK-3 requires pre-phosphorylation of its substrates, the cells were treated with forskolin to enhance CREB phosphorylation via activation of cAMP dependent kinase (PKA), or with phorbol ester (PMA) to enhance N′IRS-1 phosphorylation via activation of protein kinase C (PKC). The phosphorylation of CREB at serine 129, and N′IRS-1 at serine 332 (both GSK-3 phosphorylation sites) was then examined.
Thus, HEK293 cells were co-transfected with WT-GSK-3β or F93A plasmids together with construct coding for CREB. Cells were treated with forskolin (10 μM, 1 hour), and cell extracts were subjected to western blot analysis using anti-phospho CREB (Ser 129/133) antibody, as presented in FIG. 1D. Expression levels of CREB and GSK-3 proteins are indicated.
Similar assay was conducted using N′IRS-1 cDNA construct instead of CREB, and cells were treated with PMA (100 nM, 30 minutes). Expression levels of N′IRS-1 and GSK-3β are indicated. Results are means of three independent experiments±SEM.

T1 sequence (P49841 1-433 isoform P49841-2): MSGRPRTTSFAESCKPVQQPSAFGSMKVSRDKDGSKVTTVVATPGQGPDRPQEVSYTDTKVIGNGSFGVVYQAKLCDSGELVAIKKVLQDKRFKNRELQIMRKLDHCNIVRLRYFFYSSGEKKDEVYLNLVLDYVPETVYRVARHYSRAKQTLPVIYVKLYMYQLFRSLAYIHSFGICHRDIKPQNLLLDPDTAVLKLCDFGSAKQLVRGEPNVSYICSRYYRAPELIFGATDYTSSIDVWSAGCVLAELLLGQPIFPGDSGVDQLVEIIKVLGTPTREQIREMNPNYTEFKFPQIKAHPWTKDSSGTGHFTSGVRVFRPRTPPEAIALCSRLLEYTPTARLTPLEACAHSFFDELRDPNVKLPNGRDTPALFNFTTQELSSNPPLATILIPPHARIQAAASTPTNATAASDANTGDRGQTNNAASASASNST

On to `CCCCCCCCCCCCCC(=O)NCC(=O)N[C@@H](CCCCN)C(=O)N[C@@H](CCC(=O)O)C(=O)N[C@@H](C)C(=O)N1CCC[C@H]1C(=O)N1CCC[C@H]1C(=O)N[C@@H](C)C(=O)N1CCC[C@H]1C(=O)N1CCC[C@H]1C(=O)N1CCC[C@H]1C(=O)N[C@@H](COP(=O)(O)O)C(=O)N1CCC[C@H]1C(=O)O` [L806-mts] (Myristoyl-GKEAPPAPPP[pS]P-OH; C-terminus assumed), for which the IC50 on GSK-3β was ~1 µM. The “Levels of β-catenin” value in the experiment with β-catenin [1] is recorded as “Elevation of β-catenin”. The “Phosphorylation of HSF-1” value in experiment [2] is “Reduced phosphorylation”. Further, in the experiment with β-catenin [3], the “Hippocampus β-catenin levels” value is given as “elevation in β-catenin levels”.

B1: F93A: GSK-3β mutant, F93 replaced by alanine, SEQ ID NO:9 (protein)
chain: MSGRPRTTSFAESCKPVQQPSAFGSMKVSRDKDGSKVTTVVATPGQGPDRPQEVSYTDTKVIGNGSFGVVYQAKLCDSGELVAIKKVLQDKRAKNRELQIMRKLDHCNIVRLRYFFYSSGEKKDEVYLNLVLDYVPETVYRVARHYSRAKQTLPVIYVKLYMYQLFRSLAYIHSFGICHRDIKPQNLLLDPDTAVLKLCDFGSAKQLVRGEPNVSYICSRYYRAPELIFGATDYTSSIDVWSAGCVLAELLLGQPIFPGDSGVDQLVEIIKVLGTPTREQIREMNPNYTEFKFPQIKAHPWTKDSSGTGHFTSGVRVFRPRTPPEAIALCSRLLEYTPTARLTPLEACAHSFFDELRDPNVKLPNGRDTPALFNFTTQELSSNPPLATILIPPHARIQAAASTPTNATAASDANTGDRGQTNNAASASASNST
modifications: GSK-3 beta, F93A mutant
Regarding B1, in the experiment with pIRS-1, the “Substrate phosphorylation (% of WTGSK-3β), pIRS-1” value was 42 ± 13 % of WTGSK-3β. Moreover, in the experiment on p9CREB, the “Substrate phosphorylation (% of WTGSK-3β), p9CREB” value is recorded as 46 ± 2 % of WTGSK-3β. Also, the “Substrate phosphorylation (% of WTGSK-3β), pGS-1” value in the experiment on pGS-1 is 13 ± 7 % of WTGSK-3β. For the same molecule, the “Phosphorylation of CREB and N′IRS-1 in cells” value in experiment [4] is “did not enhance the phosphorylation”.

The values above are taken from patent US9243034B2, “Glycogen synthase kinase-3 inhibitors” (Ramot at Tel-Aviv University Ltd., priority 2011, dated 2016).
